Measured values from ChEMBL document CHEMBL3885881, “DrugMatrix”.

Organism: Rattus norvegicus
Test: DrugMatrix - Regimen: Daily Repeat
Format: toxicity, organism-based, Sprague-Dawley
Set-up: regimen Daily Repeat, gender Male, age 6-8 weeks
Conditions: in vivo, iv, vehicle 100 % SALINE; for EOSINOPHIL / ERYTHROCYTE COUNT / HEMATOCRIT / HEMOGLOBIN / LEUKOCYTE COUNT / LYMPHOCYTE / MEAN CORPUSCULAR HEMOGLOBIN / MEAN CORPUSCULAR HEMOGLOBIN CONCENTRATION / MEAN CORPUSCULAR VOLUME / MONOCYTE / NEUTROPHIL / NUCLEATED RED BLOOD CELLS / PLATELET COUNT / ABSOLUTE BASOPHIL / ABSOLUTE EOSINOPHIL / ABSOLUTE LYMPHOCYTE / ABSOLUTE MONOCYTE / ABSOLUTE SEGMENTED NEUTROPHIL / BASOPHIL: tissue Blood; for ALANINE AMINOTRANSFERASE / ALBUMIN / ALKALINE PHOSPHATASE / ASPARTATE AMINOTRANSFERASE / BLOOD UREA NITROGEN / CARBON DIOXIDE / CHLORIDE / CHOLESTEROL / CREATINE PHOSPHOKINASE / CREATININE / GLUCOSE / LACTATE DEHYDROGENASE / LIPASE / PHOSPHORUS / POTASSIUM / SODIUM / TOTAL BILIRUBIN / TOTAL PROTEIN / URIC ACID: tissue Plasma
[1] = 0 mg/kg, 72 h, dose level Control, time 3 day
[2] = 0 mg/kg, 120 h, dose level Control, time 5 day
[3] = 20 mg/kg, 72 h, dose level Low, time 3 day
[4] = 20 mg/kg, 120 h, dose level Low, time 5 day

## NCC[C@H](O)C(=O)N[C@@H]1C[C@H](N)[C@@H](O[C@H]2O[C@H](CN)[C@@H](O)[C@H](O)[C@H]2O)[C@H](O)[C@H]1O[C@H]1O[C@H](CO)[C@@H](O)[C@H](N)[C@H]1O [AMIKACIN]
[1]
  EOSINOPHIL: 0%
  ERYTHROCYTE COUNT: 5.38 x10E6/uL
  HEMATOCRIT: 33.67%
  HEMOGLOBIN: 12.88 G/DL
  LEUKOCYTE COUNT: 8.37 x10E3/uL
  LYMPHOCYTE: 91.17%
  MEAN CORPUSCULAR HEMOGLOBIN: 23.95 pg
  MEAN CORPUSCULAR HEMOGLOBIN CONCENTRATION: 38.23 G/DL
  MEAN CORPUSCULAR VOLUME: 62.6 fL
  MONOCYTE: 0.83%
  NEUTROPHIL: 8%
  NUCLEATED RED BLOOD CELLS: 0.17 /100WBC
  PLATELET COUNT: 865 x10E3/uL
  ALANINE AMINOTRANSFERASE: 51.67 u/L
  ALBUMIN: 3.97 G/DL
  ALKALINE PHOSPHATASE: 351.17 u/L
  ASPARTATE AMINOTRANSFERASE: 82.33 u/L
  BLOOD UREA NITROGEN: 15.17 mg/dL
  CARBON DIOXIDE: 34.5 mmol/L
  CHLORIDE: 100 MEQ/L
  CHOLESTEROL: 80.33 mg/dL
  CREATINE PHOSPHOKINASE: 316.5 u/L
  CREATININE: 0.17 mg/dL
  GLUCOSE: 149.17 mg/dL
  LACTATE DEHYDROGENASE: 105.67 u/L
  LIPASE: 9.5 u/L
  PHOSPHORUS: 10.87 mg/dL
  POTASSIUM: 5.47 MEQ/L
  SODIUM: 144.2 MEQ/L
  TOTAL BILIRUBIN: 0.2 mg/dL
  TOTAL PROTEIN: 5.83 G/DL
  URIC ACID: 0.83 mg/dL
[2]
  ABSOLUTE BASOPHIL: 0 CELLS/uL
  ABSOLUTE EOSINOPHIL: 0 CELLS/uL
  ABSOLUTE LYMPHOCYTE: 6333.5 CELLS/uL
  ABSOLUTE MONOCYTE: 38.83 CELLS/uL
  ABSOLUTE SEGMENTED NEUTROPHIL: 661 CELLS/uL
  BASOPHIL: 0%
  EOSINOPHIL: 0%
  ERYTHROCYTE COUNT: 5.44 x10E6/uL
  HEMATOCRIT: 34.17%
  HEMOGLOBIN: 13.22 G/DL
  LEUKOCYTE COUNT: 7.03 x10E3/uL
  LYMPHOCYTE: 90.17%
  MEAN CORPUSCULAR HEMOGLOBIN: 24.38 pg
  MEAN CORPUSCULAR HEMOGLOBIN CONCENTRATION: 38.7 G/DL
  MEAN CORPUSCULAR VOLUME: 62.95 fL
  MONOCYTE: 0.5%
  NEUTROPHIL: 9.33%
  NUCLEATED RED BLOOD CELLS: 0 /100WBC
  PLATELET COUNT: 924.33 x10E3/uL
  ALANINE AMINOTRANSFERASE: 52.5 u/L
  ALBUMIN: 3.97 G/DL
  ALKALINE PHOSPHATASE: 364.83 u/L
  ASPARTATE AMINOTRANSFERASE: 82.5 u/L
  BLOOD UREA NITROGEN: 17 mg/dL
  CARBON DIOXIDE: 32.33 mmol/L
  CHLORIDE: 99.6 MEQ/L
  CHOLESTEROL: 75.83 mg/dL
  CREATINE PHOSPHOKINASE: 419 u/L
  CREATININE: 0.21 mg/dL
  GLUCOSE: 155 mg/dL
  LACTATE DEHYDROGENASE: 111.5 u/L
  LIPASE: 11.33 u/L
  PHOSPHORUS: 10.32 mg/dL
  POTASSIUM: 5.37 MEQ/L
  SODIUM: 144.64 MEQ/L
  TOTAL BILIRUBIN: 0.18 mg/dL
  TOTAL PROTEIN: 5.98 G/DL
  URIC ACID: 0.62 mg/dL
[3]
  ABSOLUTE BASOPHIL: 0 CELLS/uL
  ABSOLUTE EOSINOPHIL: 0 CELLS/uL
  ABSOLUTE LYMPHOCYTE: 8480.67 CELLS/uL
  ABSOLUTE MONOCYTE: 225.67 CELLS/uL
  ABSOLUTE SEGMENTED NEUTROPHIL: 993.67 CELLS/uL
  BASOPHIL: 0%
  EOSINOPHIL: 0%
  ERYTHROCYTE COUNT: 5.64 x10E6/uL
  HEMATOCRIT: 34.43%
  HEMOGLOBIN: 13 G/DL
  LEUKOCYTE COUNT: 9.7 x10E3/uL
  LYMPHOCYTE: 88%
  MEAN CORPUSCULAR HEMOGLOBIN: 23.03 pg
  MEAN CORPUSCULAR HEMOGLOBIN CONCENTRATION: 37.77 G/DL
  MEAN CORPUSCULAR VOLUME: 61 fL
  MONOCYTE: 2.33%
  NEUTROPHIL: 9.67%
  NUCLEATED RED BLOOD CELLS: 0.33 /100WBC
  PLATELET COUNT: 903.33 x10E3/uL
  ALANINE AMINOTRANSFERASE: 53.67 u/L
  ALBUMIN: 4.13 G/DL
  ALKALINE PHOSPHATASE: 308.67 u/L
  ASPARTATE AMINOTRANSFERASE: 82.33 u/L
  BLOOD UREA NITROGEN: 14 mg/dL
  CARBON DIOXIDE: 35.67 mmol/L
  CHLORIDE: 99 MEQ/L
  CHOLESTEROL: 77.33 mg/dL
  CREATINE PHOSPHOKINASE: 320 u/L
  CREATININE: 0.17 mg/dL
  GLUCOSE: 145.67 mg/dL
  LACTATE DEHYDROGENASE: 98 u/L
  LIPASE: 9.33 u/L
  PHOSPHORUS: 11.1 mg/dL
  POTASSIUM: 6.07 MEQ/L
  SODIUM: 144.47 MEQ/L
  TOTAL BILIRUBIN: 0.2 mg/dL
  TOTAL PROTEIN: 6.03 G/DL
  URIC ACID: 0.9 mg/dL
[4]
  ABSOLUTE BASOPHIL: 0 CELLS/uL
  ABSOLUTE EOSINOPHIL: 0 CELLS/uL
  ABSOLUTE LYMPHOCYTE: 3175.67 CELLS/uL
